# Data reported in PubChem BioAssay (NCI).
#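 Growth conditions: 96-well plates. Treatment: test compound, 48 hours, 5 concentrations. Analysis: linear interpolation between bracketing concentrations; unreached endpoints set to highest concentration. Abbreviation: GI50, concentration required for 50% inhibition of growth. TGI is the concentration that stops growth completely.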
# How the values were obtained:
# Experiment in all cases: NCI-60 cell line screen, 48 h
# 786-0 renal = tested on: 786-0 renal
# SF-295 CNS = tested on: SF-295 CNS
# KM12 colon = tested on: KM12 colon
# SF-539 CNS = tested on: SF-539 CNS
# MCF7 breast = tested on: MCF7 breast
# RPMI-8226 leukemia = tested on: RPMI-8226 leukemia
# HT29 colon = tested on: HT29 colon
# BT-549 breast = tested on: BT-549 breast
# MOLT-4 leukemia = tested on: MOLT-4 leukemia
# OVCAR-8 ovarian = tested on: OVCAR-8 ovarian
# A549 NSCLC = tested on: A549 NSCLC
# SNB-75 CNS = tested on: SNB-75 CNS
# ACHN renal = tested on: ACHN renal
# HOP-62 NSCLC = tested on: HOP-62 NSCLC
# SK-OV-3 ovarian = tested on: SK-OV-3 ovarian
# HCC-2998 colon = tested on: HCC-2998 colon
# SK-MEL-2 melanoma = tested on: SK-MEL-2 melanoma
# COLO 205 colon = tested on: COLO 205 colon
# SNB-19 CNS = tested on: SNB-19 CNS
# NCI-H226 lung = tested on: NCI-H226 lung
# IGROV1 ovarian = tested on: IGROV1 ovarian
# NCI-H522 lung = tested on: NCI-H522 lung
# NCI/ADR-RES ovarian = tested on: NCI/ADR-RES ovarian
# LOX IMVI melanoma = tested on: LOX IMVI melanoma
# HL-60(TB) leukemia = tested on: HL-60(TB) leukemia
# OVCAR-4 ovarian = tested on: OVCAR-4 ovarian
# CAKI-1 renal = tested on: CAKI-1 renal
# SF-268 CNS = tested on: SF-268 CNS
# HCT-15 colon = tested on: HCT-15 colon
# MALME-3M melanoma = tested on: MALME-3M melanoma
# UO-31 renal = tested on: UO-31 renal
# HS 578T breast = tested on: HS 578T breast
# A498 renal = tested on: A498 renal
# RXF 393 renal = tested on: RXF 393 renal
# SN12C renal = tested on: SN12C renal
# TK-10 renal = tested on: TK-10 renal
# HOP-92 NSCLC = tested on: HOP-92 NSCLC
# DU-145 prostate = tested on: DU-145 prostate
# HCT-116 colon = tested on: HCT-116 colon
# NCI-H460 lung = tested on: NCI-H460 lung
# U251 CNS = tested on: U251 CNS
# T-47D breast = tested on: T-47D breast
# NCI-H23 lung = tested on: NCI-H23 lung
# UACC-62 melanoma = tested on: UACC-62 melanoma
# K-562 leukemia = tested on: K-562 leukemia
# OVCAR-3 ovarian = tested on: OVCAR-3 ovarian
# EKVX NSCLC = tested on: EKVX NSCLC
# SK-MEL-5 melanoma = tested on: SK-MEL-5 melanoma
# MDA-MB-231 breast = tested on: MDA-MB-231 breast
# SW-620 colon = tested on: SW-620 colon
# SK-MEL-28 melanoma = tested on: SK-MEL-28 melanoma
# SR leukemia = tested on: SR leukemia
# OVCAR-5 ovarian = tested on: OVCAR-5 ovarian
# CCRF-CEM leukemia = tested on: CCRF-CEM leukemia
# UACC-257 melanoma = tested on: UACC-257 melanoma
# MDA-MB-435 = tested on: MDA-MB-435
# MDA-MB-468 breast = tested on: MDA-MB-468 breast
# PC-3 prostate = tested on: PC-3 prostate
# M14 melanoma = tested on: M14 melanoma
smiles,measurement,setting,value
N#Cc1ccc(-c2nn(-c3ccc(C(=O)O)cc3)cc2CNc2cc(Cl)cc(C(F)(F)F)c2)cc1,GI50,786-0 renal,14.1 µM
same,TGI,786-0 renal,32 µM
same,GI50,SF-295 CNS,4.79 µM
same,TGI,SF-295 CNS,22.9 µM
same,GI50,KM12 colon,5.71 µM
same,TGI,KM12 colon,19.3 µM
same,GI50,SF-539 CNS,11.4 µM
same,TGI,SF-539 CNS,24 µM
same,GI50,MCF7 breast,5.16 µM
same,TGI,MCF7 breast,26 µM
same,GI50,RPMI-8226 leukemia,3.87 µM
same,TGI,RPMI-8226 leukemia,63.5 µM
same,GI50,HT29 colon,13.5 µM
same,TGI,HT29 colon,38.2 µM
same,GI50,BT-549 breast,11.3 µM
same,TGI,BT-549 breast,31.1 µM
same,GI50,MOLT-4 leukemia,4.26 µM
same,TGI,MOLT-4 leukemia,22.9 µM
same,GI50,OVCAR-8 ovarian,7.28 µM
same,TGI,OVCAR-8 ovarian,27.8 µM
same,GI50,A549 NSCLC,7.98 µM
same,TGI,A549 NSCLC,32.1 µM
same,GI50,SNB-75 CNS,15.5 µM
same,TGI,SNB-75 CNS,45.6 µM
same,GI50,ACHN renal,6.42 µM
same,TGI,ACHN renal,52.7 µM
same,GI50,HOP-62 NSCLC,11.7 µM
same,TGI,HOP-62 NSCLC,28.3 µM
same,GI50,SK-OV-3 ovarian,15.1 µM
same,TGI,SK-OV-3 ovarian,37.9 µM
same,GI50,HCC-2998 colon,6.46 µM
same,TGI,HCC-2998 colon,19.8 µM
same,GI50,SK-MEL-2 melanoma,2.96 µM
same,TGI,SK-MEL-2 melanoma,9.48 µM
same,GI50,COLO 205 colon,14 µM
same,TGI,COLO 205 colon,58.6 µM
same,GI50,SNB-19 CNS,7.61 µM
same,TGI,SNB-19 CNS,33.7 µM
same,GI50,NCI-H226 lung,10.9 µM
same,TGI,NCI-H226 lung,30.6 µM
same,GI50,IGROV1 ovarian,10.8 µM
same,TGI,IGROV1 ovarian,29.3 µM
same,GI50,NCI-H522 lung,3.18 µM
same,TGI,NCI-H522 lung,12.1 µM
same,GI50,NCI/ADR-RES ovarian,7.45 µM
same,TGI,NCI/ADR-RES ovarian,26.8 µM
same,GI50,LOX IMVI melanoma,5.95 µM
same,TGI,LOX IMVI melanoma,20.3 µM
same,GI50,HL-60(TB) leukemia,6.31 µM
same,TGI,HL-60(TB) leukemia,31.8 µM
same,GI50,OVCAR-4 ovarian,7 µM
same,TGI,OVCAR-4 ovarian,> 100 µM
same,GI50,CAKI-1 renal,10.2 µM
same,TGI,CAKI-1 renal,45.2 µM
same,GI50,SF-268 CNS,14.3 µM
same,TGI,SF-268 CNS,67 µM
same,GI50,HCT-15 colon,3.93 µM
same,TGI,HCT-15 colon,15.8 µM
same,GI50,MALME-3M melanoma,6.44 µM
same,TGI,MALME-3M melanoma,31.9 µM
same,GI50,UO-31 renal,4.34 µM
same,TGI,UO-31 renal,22 µM
same,GI50,HS 578T breast,7.95 µM
same,TGI,HS 578T breast,36.1 µM
same,GI50,A498 renal,15.8 µM
same,TGI,A498 renal,41 µM
same,GI50,RXF 393 renal,10.3 µM
same,TGI,RXF 393 renal,24.7 µM
same,GI50,SN12C renal,6.89 µM
same,TGI,SN12C renal,33 µM
same,GI50,TK-10 renal,17.2 µM
same,TGI,TK-10 renal,> 100 µM
same,GI50,HOP-92 NSCLC,3.48 µM
same,TGI,HOP-92 NSCLC,15 µM
same,GI50,DU-145 prostate,11.9 µM
same,TGI,DU-145 prostate,> 100 µM
same,GI50,HCT-116 colon,4.46 µM
same,TGI,HCT-116 colon,17.1 µM
same,GI50,NCI-H460 lung,6.67 µM
same,TGI,NCI-H460 lung,21 µM
same,GI50,U251 CNS,7.26 µM
same,TGI,U251 CNS,32.6 µM
same,GI50,T-47D breast,3.8 µM
same,TGI,T-47D breast,> 100 µM
same,GI50,NCI-H23 lung,5.19 µM
same,TGI,NCI-H23 lung,19.4 µM
same,GI50,UACC-62 melanoma,3.64 µM
same,TGI,UACC-62 melanoma,14.4 µM
same,GI50,K-562 leukemia,3.71 µM
same,TGI,K-562 leukemia,> 100 µM
same,GI50,OVCAR-3 ovarian,4.98 µM
same,TGI,OVCAR-3 ovarian,18.6 µM
same,GI50,EKVX NSCLC,5.47 µM
same,TGI,EKVX NSCLC,30.8 µM
same,GI50,SK-MEL-5 melanoma,3.41 µM
same,TGI,SK-MEL-5 melanoma,13.5 µM
same,GI50,MDA-MB-231 breast,12.3 µM
same,TGI,MDA-MB-231 breast,37 µM
same,GI50,SW-620 colon,9.22 µM
same,TGI,SW-620 colon,25 µM
same,GI50,SK-MEL-28 melanoma,4.6 µM
same,TGI,SK-MEL-28 melanoma,28.3 µM
same,GI50,SR leukemia,3.77 µM
same,TGI,SR leukemia,> 100 µM
same,GI50,OVCAR-5 ovarian,18.5 µM
same,TGI,OVCAR-5 ovarian,36 µM
same,GI50,CCRF-CEM leukemia,4.2 µM
same,TGI,CCRF-CEM leukemia,20.8 µM
same,GI50,UACC-257 melanoma,7.02 µM
same,TGI,UACC-257 melanoma,40.2 µM
same,GI50,MDA-MB-435,7.05 µM
same,TGI,MDA-MB-435,56.4 µM
same,GI50,MDA-MB-468 breast,6.83 µM
same,TGI,MDA-MB-468 breast,38.8 µM
same,GI50,PC-3 prostate,7 µM
same,TGI,PC-3 prostate,35.1 µM
same,GI50,M14 melanoma,10.1 µM
same,TGI,M14 melanoma,35.1 µM
